According to patent US20250171447A1, “ADENOSINE RECEPTOR ANTAGONISTS, PHARMACEUTICAL COMPOSITIONS AND THEIR USE THEREOF” (Merck Sharp & Dohme LLC, priority 2022, published 2025):
pIC50: −log10 of the molar value.

Molecular target: human A2A adenosine receptor (Homo sapiens (Human), UniProt P29274)
Assay: A2A receptor affinity binding assay (radioligand filtration binding or SPA, [3H]SCH58261)
Conditions: membranes from HEK293 or CHO cells expressing human A2A; Method (A) filtration or Method (B) SPA

human A2A adenosine receptor, sequence (P29274 whole entry): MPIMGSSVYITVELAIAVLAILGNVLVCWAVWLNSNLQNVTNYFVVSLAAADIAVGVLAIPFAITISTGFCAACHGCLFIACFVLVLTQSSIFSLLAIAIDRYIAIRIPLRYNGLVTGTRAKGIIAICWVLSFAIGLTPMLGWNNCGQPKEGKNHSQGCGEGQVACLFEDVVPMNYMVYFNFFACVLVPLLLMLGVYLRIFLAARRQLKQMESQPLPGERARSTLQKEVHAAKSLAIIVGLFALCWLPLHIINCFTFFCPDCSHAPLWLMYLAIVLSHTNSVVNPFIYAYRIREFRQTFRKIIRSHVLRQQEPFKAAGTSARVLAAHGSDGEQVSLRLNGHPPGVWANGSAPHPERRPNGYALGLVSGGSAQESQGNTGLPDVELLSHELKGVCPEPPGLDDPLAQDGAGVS

Structure (SMILES)	pIC50
COc1cccc2c1nc(N)n1nc([C@H]3C[C@H](c4ncc5c(n4)CCNC5)C3)nc21 (single isomer, unassigned) [Ex-110, 7-methoxy-2-[(trans)-3-(5,6,7,8-tetrahydropyrido[4,3-d]pyrimidin-2-yl)cyclobutyl][1,2,4]triazolo[1,5-c]quinazolin-5-amine]	7.78
COc1cccc2c1nc(N)n1nc([C@H]3C[C@H](c4ccc([C@@H](N)C(F)F)cn4)C3)nc21 (single isomer, unassigned) [Ex-106]	8.39
COc1cccc2c1nc(N)n1nc([C@H]3C[C@@H](c4ccc(C(C)N)cn4)C3)nc21 (stereo partly drawn) [Ex-71, 2-{cis-3-[5-(1-aminoethyl)pyridin-2-yl]cyclobutyl}-7-methoxy[1,2,4]triazolo[1,5-c]quinazolin-5-amine]	7.74
COc1cccc2c1nc(N)n1nc([C@H]3C[C@@H](c4ccc([C@@H](N)C(F)F)cn4)C3)nc21 (single isomer, unassigned) [Ex-107]	8.09
COc1cccc2c1nc(N)n1nc([C@H]3C[C@H](c4cnc(C(C)(C)N)c(C)n4)C3)nc21 [Ex-121, 2-((1r,3r)-3-(5-(2-aminopropan-2-yl)-6-methylpyrazin-2-yl)cyclobutyl)-7-methoxy-[1,2,4]triazolo[1,5-c]quinazolin-5-amine]	8.43
COc1cccc2c1nc(N)n1nc([C@H]3C[C@@H](c4cc(C)c(C(C)(C)N)cn4)C3)nc21 [Ex-80, 2-{cis-3-[5-(2-aminopropan-2-yl)-4-methylpyridin-2-yl]cyclobutyl}-7-methoxy[1,2,4]triazolo[1,5-c]quinazolin-5-amine]	8.35
Cc1nc(C(C)(C)N)cnc1[C@H]1C[C@@H](c2nc3c4cccc(F)c4nc(N)n3n2)C1 [Ex-134, 2-{cis-3-[5-(2-aminopropan-2-yl)-3-methylpyrazin-2-yl]cyclobutyl}-7-fluoro[1,2,4]triazolo[1,5-c]quinazolin-5-amine]	6.83
COc1cccc2c1nc(N)n1nc([C@H]3C[C@@H](c4ncc5c(n4)CNC5)C3)nc21 (single isomer, unassigned) [Ex-109, 2-[(cis)-3-(6,7-dihydro-5H-pyrrolo[3,4-d]pyrimidin-2-yl)cyclobutyl]-7-methoxy[1,2,4]triazolo[1,5-c]quinazolin-5-amine]	7.06
COc1cccc2c1nc(N)n1nc([C@H]3C[C@@H](c4ncc(C(C)(C)N)nc4C)C3)nc21 [Ex-89, 2-((1s,3s)-3-(5-(2-aminopropan-2-yl)-3-methylpyrazin-2-yl)cyclobutyl)-7-methoxy-[1,2,4]triazolo[1,5-c]quinazolin-5-amine]	7.56
COc1cccc2c1nc(N)n1nc([C@H]3C[C@H](c4ncc(C(C)(C)N)nc4C(F)(F)F)C3)nc21 [Ex-126, 2-{trans-3-[5-(2-aminopropan-2-yl)-3-(trifluoromethyl)pyrazin-2-yl]cyclobutyl}-7-methoxy[1,2,4]triazolo[1,5-c]quinazolin-5-amine]	8.34
COc1cccc2c1nc(N)n1nc([C@H]3C[C@H](c4ccc([C@@]5(C(F)(F)F)CCCCN5)cc4)C3)nc21 [Ex-100, 7-methoxy-2-(trans-3-{4-[(2R)-2-(trifluoromethyl)piperidin-2-yl]phenyl}cyclobutyl)[1,2,4]triazolo[1,5-c]quinazolin-5-amine]	8.49
COc1cccc2c1nc(N)n1nc([C@H]3C[C@@H](c4ncc5c(n4)CCNC5)C3)nc21 (single isomer, unassigned) [Ex-111, 7-methoxy-2-[(cis)-3-(5,6,7,8-tetrahydropyrido[4,3-d]pyrimidin-2-yl)cyclobutyl][1,2,4]triazolo[1,5-c]quinazolin-5-amine]	6.93
Cc1nc(C(C)(C)N)cnc1[C@H]1C[C@H](c2nc3c4cccc(F)c4nc(N)n3n2)C1 [Ex-133, 2-{trans-3-[5-(2-aminopropan-2-yl)-3-methylpyrazin-2-yl]cyclobutyl}-7-fluoro[1,2,4]triazolo[1,5-c]quinazolin-5-amine]	8.24

Compounds with a higher pIC50, results first:

pIC50	Structure (SMILES)
8.80	COc1cccc2c1nc(N)n1nc([C@H]3C[C@H](c4ccc(CN5CCNCC5)cc4)C3)nc21 [Ex-98, 7-methoxy-2-(trans-3-{4-[(piperazin-1-yl)methyl]phenyl}cyclobutyl)[1,2,4]triazolo[1,5-c]quinazolin-5-amine]
8.72	COc1cccc2c1nc(N)n1nc([C@H]3C[C@@H](c4ccc([C@H](N)C(F)(F)F)cn4)C3)nc21 [Ex-78, 2-(cis-3-{5-[(1S)-1-amino-2,2,2-trifluoroethyl]pyridin-2-yl}cyclobutyl)-7-methoxy[1,2,4]triazolo[1,5-c]quinazolin-5-amine]
9.00	COc1cc(F)cc2c1nc(N)n1nc([C@H]3C[C@@H](c4ccc(C(C)(C)O)cc4)C3)nc21 [Ex-50, 2-{4-[cis-3-(5-amino-9-fluoro-7-methoxy [1,2,4]triazolo [1,5-c]quinazolin-2-yl)cyclobutyl]phenyl} propan-2-ol]
8.89	COc1cccc2c1nc(N)n1nc([C@H]3C[C@H](c4ccc(N5CCN(C)CC5)nc4)C3)nc21 [Ex-114, 7-methoxy-2-{trans-3-[6-(4-methylpiperazin-1-yl)pyridin-3-yl]cyclobutyl}[1,2,4]triazolo[1,5-c]quinazolin-5-amine]
8.54	Cc1nc(C(C)(C)N)cnc1[C@H]1C[C@H](c2nc3c4cccc(Cl)c4nc(N)n3n2)C1 [Ex-127, 2-((1r,3r)-3-(5-(2-aminopropan-2-yl)-3-methylpyrazin-2-yl)cyclobutyl)-7-chloro-[1,2,4]triazolo[1,5-c]quinazolin-5-amine]
8.89	COc1cccc2c1nc(N)n1nc([C@H]3C[C@H](c4ccc([C@H](N)C(F)(F)F)cn4)C3)nc21 [Ex-77, 2-(trans-3-{5-[(1S)-1-amino-2,2,2-trifluoroethyl]pyridin-2-yl}cyclobutyl)-7-methoxy[1,2,4]triazolo[1,5-c]quinazolin-5-amine]
9.52	COc1cccc2c1nc(N)n1nc([C@H]3C[C@@H](c4ccc(CN5CCNCC5)cc4)C3)nc21 [Ex-97, 7-methoxy-2-(cis-3-{4-[(piperazin-1-yl)methyl]phenyl}cyclobutyl)[1,2,4]triazolo[1,5-c]quinazolin-5-amine]
8.57	COc1cccc2c1nc(N)n1nc([C@H]3C[C@H](c4ccc(C(N)C(F)(F)F)cc4)C3)nc21 (stereo partly drawn) [Ex-79, 2-{trans-3-[4-(1-amino-2,2,2-trifluoroethyl)phenyl]cyclobutyl}-7-methoxy[1,2,4]triazolo[1,5-c]quinazolin-5-amine]
8.51	COc1cccc2c1nc(N)n1nc([C@H]3C[C@H](c4ccc(C5(N)CC(F)(F)C5)cn4)C3)nc21 [Ex-141]
9.30	COc1cccc2c1nc(N)n1nc([C@H]3C[C@@H](c4ccc(C(N)C(F)(F)F)cc4)C3)nc21 (single isomer, unassigned) [Ex-76, 2-{cis-3-[4-(1-amino-2,2,2-trifluoroethyl)phenyl]cyclobutyl}-7-methoxy[1,2,4]triazolo[1,5-c]quinazolin-5-amine]
9.22	COc1cccc2c1nc(N)n1nc([C@H]3C[C@@H](c4ccc(C(C)(C)O)cc4)C3)nc21 [Ex-42, 2-(4-((1s,3s)-3-(5-amino-7-methoxy-[1,2,4]triazolo[1,5-c]quinazolin-2-yl)cyclobutyl)phenyl)propan-2-ol]
